The text below walks through data of ChEMBL document CHEMBL1201862, “PubChem BioAssay data set” (2004).

What all share (assay): growth of human tumour cells (NCI), 48 h
The test system of experiment [1] is MOLT-4.
Experiment [2] deals with SW-620.
Experiment [3] concerns OVCAR-3.
In experiment [4] the test system is COLO 205.
Experiment [5] concerns UACC-62.
Experiment [6] relates to NCI-H460.
For experiment [7], the system named is HCT-116.
Experiment [8] deals with Hs-578T.
The test system of experiment [9] is A498.
The subject of experiment [10] is M14.
Experiment [11] deals with HL-60.
The subject of experiment [12] is Malme-3M.
The subject of experiment [13] is MDA-MB-231.
In experiment [14] the test system is HCC 2998.
In experiment [15] the test system is KM12.
Experiment [16] deals with SK-MEL-2.
Experiment [17] concerns SF-295.
Experiment [18] concerns CCRF-CEM.
Experiment [19] concerns K562.
The subject of experiment [20] is MCF7.

The structures appear in SMILES notation.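 Briefly, cells in 96-well plates were exposed to five compound concentrations for 48 h, and endpoints were estimated by linear interpolation. GI50 is the concentration that inhibits growth by half.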 Activity calls are given as the source filed them. No stated cut-off is given here; in the data, active = GI50 up to about 1.1 µM and inactive = higher.

On to `CCC(C)(C)/C(CC(O)(C(F)(F)F)C(F)(F)F)=N\O`, for which the GI50 in experiment [1], in experiment [2], in experiment [3], in [4], in experiment [5] and in experiment [6] was > 100 µM (inactive) throughout. Moreover, the GI50 in [7], in experiment [8], in experiment [9], in [10], in experiment [11] and in [12] was > 100 µM (inactive) throughout. For the same compound, the GI50 in experiment [13], in [14], in [15], in experiment [16], in experiment [17] and in [18] was > 100 µM (inactive) in each case. The GI50 in experiment [19] was > 100 µM (inactive).

On to `O=C(/N=N/c1ccc([N+](=O)[O-])cc1)NNc1ccc([N+](=O)[O-])cc1`, for which the GI50 was 4.58 µM (inactive) in experiment [20]; 11 µM (inactive) in experiment [1]; 18.7 µM (inactive) in experiment [2]; 20.5 µM (inactive) in experiment [3]; 10.3 µM (inactive) in [5]; 19.6 µM (inactive) in experiment [6]. For the same compound, the GI50 in experiment [7] was 11.8 µM (inactive); in [9] it was 4.46 µM (inactive); in [10], 13.5 µM (inactive); in [11], 11.9 µM (inactive); in experiment [12], 19 µM (inactive); in experiment [13], 24 µM (inactive). The GI50 was 14.2 µM (inactive) in [14], 13.3 µM (inactive) in experiment [16], 15.8 µM (inactive) in experiment [18] and 11.4 µM (inactive) in [19].

As to `COCCN(CCOC)C(=O)COc1c2cc(C(C)(C)C)cc1Cc1cc(C(C)(C)C)cc(c1OCC(=O)N(CCOC)CCOC)Cc1cc(C(C)(C)C)cc(c1OCC(=O)N(CCOC)CCOC)Cc1cc(C(C)(C)C)cc(c1OCC(=O)N(CCOC)CCOC)Cc1cc(C(C)(C)C)cc(c1OCC(=O)N(CCOC)CCOC)C2`, the GI50 in [20] is 1.3 µM (inactive); in experiment [1] it was 1.74 µM (inactive); in [2], 0.877 µM (active); in experiment [3] it was 0.288 µM (active); in experiment [4], 0.562 µM (active); in [5] it was 1.18 µM (inactive). Moreover, the GI50 in [6] was 1.12 µM (inactive); in [7], 0.618 µM (active); in [9] it was 3.17 µM (inactive); in experiment [10] it was 1.89 µM (inactive); in experiment [11], 1.25 µM (inactive); in experiment [12], 1.85 µM (inactive). The GI50 in [13] is 1.99 µM (inactive); in [14] it was 2.25 µM (inactive); in experiment [15] it was 0.518 µM (active); in experiment [16] it was 1.02 µM (active); in [17], 1.54 µM (inactive); in experiment [18], 0.705 µM (active). In addition, in [19], the GI50 was 0.491 µM (active).

As to `O=c1oc(-c2ccc(O)cc2)cc2cc(O)ccc12`, the GI50 in experiment [20] was 20.6 µM (inactive); in experiment [1], 18.5 µM (inactive); in experiment [2], 25.7 µM (inactive); in experiment [3] it was 27.5 µM (inactive); in [4] it was 20.2 µM (inactive); in experiment [6], 22.6 µM (inactive). In addition, the GI50 in experiment [7] is 21.2 µM (inactive); in [8] it was 23.6 µM (inactive); in experiment [9], 14.7 µM (inactive); in [10], 24.2 µM (inactive); in experiment [11] it was 18.5 µM (inactive); in [12], 30.1 µM (inactive). Besides, the GI50 in experiment [14] was 23.1 µM (inactive); in experiment [15], 24.8 µM (inactive); in [16] it was 33.3 µM (inactive); in experiment [17] it was 39.4 µM (inactive); in [18] it was 20.4 µM (inactive); in [19] it was 13.2 µM (inactive).

With `C1CCCCC2(CCCCCCCCC3(CCC1)SCCS3)SCCS2`, the GI50 in [20], in experiment [2], in experiment [3], in experiment [4], in [5] and in experiment [6] was > 100 µM (inactive) each time. For the same compound, the GI50 in experiment [7], in experiment [8], in [9], in [10], in [11] and in experiment [12] was > 100 µM (inactive) each time. The GI50 in [14], in experiment [15], in [16], in experiment [17] and in experiment [19] was > 100 µM (inactive) throughout.

With `COc1ccc(CCNCCCC2c3ccccc3-c3ccccc32)cc1OC`, the GI50 was 6.7 µM (inactive) in experiment [20]; 22.6 µM (inactive) in [1]; 7.33 µM (inactive) in [2]; 16.7 µM (inactive) in experiment [3]; 1.86 µM (inactive) in [4]; 16.4 µM (inactive) in [5]. The GI50 is 7.16 µM (inactive) in experiment [6]; 12.6 µM (inactive) in experiment [7]; 20.1 µM (inactive) in [8]; 8.02 µM (inactive) in [9]; 4.8 µM (inactive) in experiment [10]; 12.9 µM (inactive) in [11]. Further, the GI50 in [12] was 13.6 µM (inactive); in experiment [14], 2.06 µM (inactive); in [15] it was 15.1 µM (inactive); in experiment [16] it was 6.68 µM (inactive); in experiment [17], 15.6 µM (inactive); in experiment [18], 24.3 µM (inactive). Moreover, the GI50 in experiment [19] is 4.09 µM (inactive).

With `O=C(O)C1CCCN(CCc2c[nH]c3ccccc23)C1` (configuration not stated), the GI50 in experiment [20], in experiment [1], in [2], in experiment [3], in experiment [4] and in [5] was > 100 µM (inactive) each time. Besides, the GI50 in [6], in experiment [7], in experiment [9], in experiment [10], in [11] and in experiment [12] was > 100 µM (inactive) in each case. Besides, the GI50 in experiment [13], in [14], in [15], in experiment [16], in [17] and in [18] was > 100 µM (inactive) each time. The GI50 in experiment [19] was > 100 µM (inactive).

`COc1ccc2cc(C(C)C(O)c3cc(F)c(F)c(F)c3F)ccc2c1` (configuration not stated): the GI50 in experiment [20] was > 100 µM (inactive); in experiment [1], > 10 µM (inactive); in experiment [2] it was > 100 µM (inactive); in experiment [3] it was 98.6 µM (inactive); in [4], > 100 µM (inactive); in experiment [5], > 100 µM (inactive). Moreover, the GI50 in experiment [6] is > 100 µM (inactive); in experiment [7], > 100 µM (inactive); in experiment [9], > 100 µM (inactive); in experiment [10], > 100 µM (inactive); in experiment [11], 18.7 µM (inactive); in experiment [12], > 100 µM (inactive). For the same compound, the GI50 was > 100 µM (inactive) in experiment [13]; > 100 µM (inactive) in experiment [14]; 40.4 µM (inactive) in [17]; > 100 µM (inactive) in experiment [18]; 30.8 µM (inactive) in experiment [19].

Regarding `Cc1c(O)c(OC2OC(CO)C(O)C(O)C2O)cc2c1CC[C@@H]1C2(C)C(=O)C[C@]2(C)[C@@H]([C@@](C)(O)C(O)/C=C/C(C)(C)O)[C@H](O)C[C@@]12C` (some centres not stated), the GI50 in experiment [20], in experiment [1], in experiment [2], in [3], in experiment [4] and in experiment [5] was > 100 µM (inactive) each time. The GI50 in experiment [6], in experiment [7], in [9], in experiment [10], in [11] and in experiment [12] was > 100 µM (inactive) in each case. The GI50 in experiment [13], in experiment [14], in experiment [15], in experiment [16], in experiment [17] and in [18] was > 100 µM (inactive) in each case. In addition, the GI50 in experiment [19] was > 100 µM (inactive).

For `N#C/C(=C\c1ccc2[nH]ccc2c1)C(=O)c1ccc(O)c(O)c1`, the GI50 in experiment [20] was 34.8 µM (inactive); in experiment [1], 44.7 µM (inactive); in experiment [2] it was 55.2 µM (inactive); in experiment [3], 9.42 µM (inactive); in experiment [4], > 67.8 µM (inactive); in experiment [5] it was 70 µM (inactive). Moreover, the GI50 in experiment [6] was 37 µM (inactive); in experiment [7] it was > 53.6 µM (inactive); in [8] it was 44.2 µM (inactive); in experiment [9] it was > 100 µM (inactive); in experiment [10], > 63.1 µM (inactive); in experiment [11], 27.5 µM (inactive). The GI50 is > 65.8 µM (inactive) in [12]; 66.7 µM (inactive) in experiment [14]; > 100 µM (inactive) in experiment [15]; > 78.9 µM (inactive) in experiment [16]; 61.4 µM (inactive) in [17]; 24.5 µM (inactive) in experiment [18]. In addition, the GI50 in experiment [19] is 48.4 µM (inactive).
